The numbers were not newly measured in patent publication US20150209375A1, “POSOLOGY AND ADMINISTRATION OF GLUCOCORTICOID BASED COMPOSITIONS” (DuoCort Pharma AB, priority 2010, published 2015), which cites them from elsewhere.

SMILES strings stand for the structures.

For the series the following is noted: Lennernäs et al 2008.

For the compound `C[C@]12CCC(=O)C=C1CC[C@@H]1[C@@H]2[C@@H](O)C[C@@]2(C)[C@H]1CC[C@]2(O)C(=O)CO` [Hydrocortisone], the extraction result is “low extraction drug”. The BCS class entry (Amidon et al 1995) was “BCS class II”.
